Test results taken from patent US20120251619A1, “MicroRNA-29a,b,c as a Tumor Suppressor and Sensitizing Agent for Chemotherapy” (priority 2011, published 2012).
“Also recorded” adds a separate entry of the source.

How the values were obtained:
Type in all cases: cell-based, human
[1] = system: HEYA8 cells (p53-wild type ovarian cancer); test: MTS proliferation assay after transient transfection of miR-29a mimic; settings: HEYA8, miR-29a mimic transiently transfected, vs parental strain and scrambled control, 48 h and 72 h
Method: (§1) For the in vitro evaluation of miR-29a on cell proliferation of ovarian cancer cells, microRNA mimics of miR-29a were transiently transfected into the p53-deficient ovarian cancer cell line OVCAR8 and the p53-wild type HEYA8 and the impact of this microRNA on cell proliferation was measured by increase in absorbance from the […].
(§2) The time course MTS assay experiments were run three times (separate days), each with a different set of biological quadruplicates (n=12 per group); within each experiment run, the viability measures within each time point were centered on the mean of the WT group for the first run. For cisplatin treatment, cells were transfected as described, and media was replaced after 24 hrs with media containing cisplatin (Sigma) (0-7.5 μg/mL). Viability was assayed 72 hrs post-transfection. Experiments were run three times, each with a different biological replicate (n=3 per group). For each run, viability measures within each concentration point were centered on the mean of values for the first run.

[2] = system: OVCAR-8 cells (p53-deficient ovarian cancer); test: as above; settings: OVCAR8, miR-29a mimic transiently transfected, vs parental strain and scrambled control, 48 h and 72 h
Method: as §1, §2

[3] = system: HEYA8 cells; test: Proliferation/viability under cisplatin treatment after miR-29a transfection; settings: HEYA8, miR-29a 72 h, cisplatin 0-7.5 μg/mL for 48 h, vs scrambled control at same cisplatin dosage
Method: (§3) FIGS. 6A-6B: Effect of miR-29a (72 h) on proliferation, under a range of concentrations of cisplatin treatment (at 48 h) of HEYA8 (FIG. 6A) and OVCAR-8 cells (FIG. 6B). Error bars are standard error. Proliferation curves of the parental HEYA8 strain treated with a scrambled control sequence and with microRNA mimics for miR-29a are shown.
as §2

[4] = system: OVCAR-8 cells; test: as above; settings: OVCAR-8, miR-29a 72 h, cisplatin 0-7.5 μg/mL for 48 h
Method: as §3, §2

[5] = system: TIMELESS; test: QPCR of gene target after miR-29a overexpression in HEYA8 cells; settings: HEYA8, forced miR-29a expression vs scrambled control and untreated
Method: (§4) FIG. 4: QPCR analysis showing relative quantity of selected miR-29a anti-correlated gene targets after miR29a overexpression in HEYA8 ovarian cancer cells (SCR, scrambled control; WT, untreated; two-sided t-test P<0.05, mir-29a vs SCR and miR-29a vs WT, each comparison, except for SAE1).
(§5) Total RNA (60 ng) was reverse transcribed in a 40 μl reaction using the TaqMan® MicroRNA Reverse Transcription Kit (ABI). QPCR was performed on a StepOne Real-Time PCR System (ABI) using Power-SYBR Green PCR Master Mix (ABI) in a 20 μl reaction and human ribosomal RNA 18s as an endogenous control (which was itself not miR-29a-regulated, data not shown). The QPCR experiments were run four times (separate days), each with independent biological samples (n=4 per group); within each experiment run, relative expression values were normalized to standard deviations from the mean.

[6] = system: SAE1; test: as above; settings: HEYA8, forced miR-29a expression vs scrambled control and untreated
Method: as §4, §5

[7] = system: MYBL2; test: as above; settings: HEYA8, forced miR-29a expression vs scrambled control and untreated
Method: as §4, §5

[8] = system: DNMT3B; test: as above; settings: HEYA8, forced miR-29a expression vs scrambled control and untreated
Method: as §4, §5

[9] = system: CBX1; test: as above; settings: HEYA8, forced miR-29a expression vs scrambled control and untreated
Method: as §4, §5

[10] = system: DNMT3A; test: as above; settings: HEYA8, forced miR-29a expression vs scrambled control and untreated
Method: as §4, §5

[11] = system: CDC6; test: as above; settings: HEYA8, forced miR-29a expression vs scrambled control and untreated
Method: as §4, §5

“miR-29a: microRNA mimic of miR-29a (5′-TAGCACCATCTGAAATCGGTTA-3′, SEQ ID NO: 13), transiently transfected into ovarian cancer cells (listed as DNA, chemistry not given here)” was tested, and the “effect on cell proliferation” value [1] was “very significantly suppress cell proliferation”, the “effect on cell proliferation” value [2] was “moderately suppress cell proliferation” and the “effect on proliferation under cisplatin treatment” value [3] was “suppress the proliferation of HEYA8 significantly more effectively than the scrambled control; also recorded: suppresses the proliferation of HEYA8 significantly more effectively than the scrambled control”. For the same substance, the “effect on proliferation under cisplatin treatment” value [4] was “had an additional effect on chemotherapeutic agent cisplatin in inhibiting the growth”, the “relative quantity of TIMELESS transcript (QPCR)” value [5] was “repressed” and the “relative quantity of SAE1 transcript (QPCR)” value [6] was “no functional repression”. For the same substance, the “relative quantity of MYBL2 transcript (QPCR)” value [7] was “repressed”, the “relative quantity of DNMT3B transcript (QPCR)” value [8] was “repressed” and the “relative quantity of CBX1 transcript (QPCR)” value [9] was “repressed”. The “relative quantity of DNMT3A transcript (QPCR)” value [10] was “repressed” and the “relative quantity of CDC6 transcript (QPCR)” value [11] was “repressed”.
